Data on two compounds can be found in ChEMBL document CHEMBL3880421, “Indazole compounds and pharmaceutical compositions for inhibiting protein kinases, and methods for their use” (2003).

Data set [1] can be described thus: Terminal half life in B6 mouse at 25 mg/kg, po administered in 0.5% CMC by UV-HPLC analysis. It counts as ADME, organism-based. The conditions noted are these: in vivo, read-out: beta t1/2 (converted).
Another data set relates to Rattus norvegicus. Put plainly: Antivascular activity in rat model of retinopathy assessed as vessel regression in retina at 5 mg/ml, administered intravitreally on postnatal day 8 measured after 6 days by ADPase-staining based histochemical analysis. It counts as functional.
The nature of data set [2]: Terminal half life in B6 mouse at 25 mg/kg, ip by UV-HPLC analysis. It counts as ADME, organism-based. The conditions noted are these: in vivo, read-out: beta t1/2 (converted).
Data set [3] can be described thus: Terminal half life in B6 mouse at 25 mg/kg, po by UV-HPLC analysis. It is filed as ADME, organism-based. As to conditions: B6, mouse, in vivo, read-out: beta t1/2 (converted).
A short description of data set [4]: AUClast in B6 mouse at 200 mg/kg, po by UV-HPLC analysis. Details: dose 200 mg/kg, time 0 - last, route oral. It is filed as ADME, organism-based. As to conditions: in vivo.
Data set [5] in a line: Cmin in B6 mouse at 200 mg/kg, po measured after 7 hrs by UV-HPLC analysis. It is filed as ADME, organism-based. As to conditions: in vivo, read-out: Cmin.
Data set [6] in a line: Terminal half life in B6 mouse at 200 mg/kg, po by UV-HPLC analysis. It is filed as ADME, organism-based. The conditions noted are these: in vivo, read-out: beta t1/2 (converted).

Consider `CCONC(=O)c1ccccc1Sc1ccc2c(/C=C/c3ccccn3)n[nH]c2c1`, for which the half-life is 2 h in data set [1], 4.1 h in data set [2] and 2 h in data set [3]. Also, the Activity entry in the data set on Rattus norvegicus was “>=25 - 75%”.

Broadly, the AUC(0-t) is the area under the concentration-time curve up to a stated or last time point. Read a low AUC(0-t) as low exposure. In data set [4], `Cc1cc(C(=O)Nc2cccc(C(=O)c3ccc4c(/C=C/c5ccccn5)n[nH]c4c3)c2)n(C)n1.Cl` came in with an AUC(0-t) of 156 µg·h/mL. Further, the concentration at 7 h in data set [5] was determined as 12100 ng/mL. Besides, the half-life in data set [6] was 9.4 h.
